Measurements as given in patent US7517888B2, “A1 adenosine receptor antagonists” (CV Therapeutics, Inc., priority 2004, dated 2009).
Like-named read-outs stand apart in the source and are kept apart here.

Columns and labels:
Human-A2B (HEK-A2B) = biological target: T1, Human-A2B (HEK-A2B) (Homo sapiens, UniProt P29275); assay: Radioligand binding, human A2B AdoR, HEK-A2B membranes
T1 construct: expressed in transfected cells; host or cells: HEK-293 cells, stably transfected (HEK-A2B)
T1 sequence (P29275 1-332): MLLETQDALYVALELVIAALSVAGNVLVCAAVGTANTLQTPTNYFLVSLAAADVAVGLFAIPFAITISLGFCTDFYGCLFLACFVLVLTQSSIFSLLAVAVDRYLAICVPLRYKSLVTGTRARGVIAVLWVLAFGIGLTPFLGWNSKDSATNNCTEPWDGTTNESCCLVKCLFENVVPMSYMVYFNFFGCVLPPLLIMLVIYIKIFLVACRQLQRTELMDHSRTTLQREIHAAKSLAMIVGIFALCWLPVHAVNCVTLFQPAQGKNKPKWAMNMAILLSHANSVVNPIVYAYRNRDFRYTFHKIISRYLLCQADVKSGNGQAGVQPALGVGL
Experimental: (§1) The cDNAs for human A1, A2A, A2B or A3 AdoRs were prepared by RT-PCR from total RNA of human cells or tissues and sequenced on both strands. The expression vector containing each of these cDNAs and a second vector containing a neomycin or puromycin-resistance gene were introduced to HEK-293 or CHO cells by Lipofectin-Plus (Life Technology). Colonies were selected by growing transfected cells in the presence of neomycin or puromycin. Stably transfected cells were maintained in Dulbecco's modified Eagle's medium (DMEM) or F-12 medium with 10% fetal bovine serum, 100 μg/ml penicillin, 100 μg/ml streptomycin and appropriate concentrations of neomycin or puromycin. These stably transfected cells were referred to as HEK-“AdoR” or CHO-“AdoR” depending on the receptors that they express. The cell lines used routinely were CHO-A1, HEK-A2A, HEK-A2B.and CHO-A3 cells. In addition, hamster DDT1 MF-2 cells that express endogenous A1 AdoRs were also used to determine the binding activities of compounds for A1 AdoRs.
(§2) Monolayers of transfected cells or DDT1 MF-2 were washed with phosphate buffered saline (PBS) and harvested in a buffer containing 10 mM HEPES (pH 7.4), 10 mM EDTA and protease inhibitors. The cells were homogenized in polytron for 1 minute at setting 4 and centrifuged at 29000 g for 15 minutes at 4° C. The cell pellets were washed with a buffer containing 10 mM HEPES (pH7.4), 1 mM EDTA and protease inhibitors, and were resuspended in the same buffer supplemented with 10% sucrose. Frozen aliquots were kept at −80° C.
[…] The amounts of radioligands that bound to the GF/B filter plates were determined by scintillation counting. Nonspecific binding were determined in the presence of 1-10 μM of cold ligands. Bmax and KD values were calculated using GraphPad software.

Human-A2A (HEK-A2A) = biological target: T2, Human-A2A (HEK-A2A) (Homo sapiens, UniProt P29274); assay: Radioligand binding, human A2A AdoR, HEK-A2A membranes
T2 construct: expressed in transfected cells; host or cells: HEK-293 cells, stably transfected (HEK-A2A)
Experimental: as §1, §2
(§3) The affinities of compounds for A1, A2A, A2B or A3 AdoRs were determined in competition studies using radioligands such as ^3H—CPX (A1 antagonist), or ^3H—CCPA (A1 agonist), ^3H-ZM241385 (A2A antagonist) or ^3H-CGS21680 (A2A agonist), ^3H-ZM241385 (A2B antagonist) or ^125I-AB-MECA (A3 agonist) and membranes of corresponding cells. […] The assays were incubated for 60-90 minutes, stopped by filtration onto GF/B filter plates using Packard Harvester and washed four times with ice-cold TM buffer (10 mM Tris, 1 mM MgCl2, pH 7.4). The amounts of radioligands that bound to the GF/B filter plates were determined by scintillation counting. Nonspecific binding were determined in the presence of 1-10 μM of cold ligands. Bmax and KD values were calculated using GraphPad software.

Human-A1 (CHO-A1) = biological target: T3, Human-A1 (CHO-A1) (Homo sapiens, UniProt P30542); assay: Radioligand binding, human A1 AdoR, CHO-A1 membranes
T3 construct: expressed in transfected cells; host or cells: CHO cells, stably transfected (CHO-A1)
T3 sequence (P30542 1-326): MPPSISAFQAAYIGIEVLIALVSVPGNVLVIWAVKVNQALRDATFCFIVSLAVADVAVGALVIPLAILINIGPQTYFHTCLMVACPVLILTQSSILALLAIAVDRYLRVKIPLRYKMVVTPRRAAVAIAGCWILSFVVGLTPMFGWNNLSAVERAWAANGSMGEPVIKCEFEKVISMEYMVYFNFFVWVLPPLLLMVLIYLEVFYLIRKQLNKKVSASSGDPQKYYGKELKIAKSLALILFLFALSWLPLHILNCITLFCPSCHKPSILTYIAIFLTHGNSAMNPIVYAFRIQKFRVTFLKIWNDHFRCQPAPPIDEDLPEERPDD
Experimental: as §1, §2, §3

Hamster-A1 (DDT1 MF-2) = biological target: T4, Hamster-A1 (DDT1 MF-2) (Mesocricetus auratus, UniProt A0A1U8BVR4); assay: Radioligand binding, hamster A1 AdoR, DDT1 MF-2 membranes
T4 sequence (A0A1U8BVR4 1-326): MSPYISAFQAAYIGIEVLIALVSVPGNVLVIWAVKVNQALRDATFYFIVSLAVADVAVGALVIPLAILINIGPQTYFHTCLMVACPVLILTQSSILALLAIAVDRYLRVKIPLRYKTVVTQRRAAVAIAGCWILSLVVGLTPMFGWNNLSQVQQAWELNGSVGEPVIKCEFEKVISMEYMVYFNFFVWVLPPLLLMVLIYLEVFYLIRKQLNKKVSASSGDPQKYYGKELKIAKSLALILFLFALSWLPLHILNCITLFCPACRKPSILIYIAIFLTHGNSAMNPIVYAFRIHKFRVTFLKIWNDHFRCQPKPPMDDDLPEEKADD
Experimental: as §1, §2, §3

[1] = 3H-CGS21680 radioligand (footnote c), HEK-A2B membranes, read-out: Ki (low) Human-A2B HEK-A2B
[2] = 3H-ZM241385 radioligand, HEK-A2A membranes, read-out: Ki (low) Human-A2A HEK-A2A
[3] = 3H-CPX radioligand, CHO-A1 membranes, read-out: Ki (low) Human-A1 CHO-A1
[4] = 3H-CPX radioligand, DDT1 MF-2 membranes, read-out: Ki (low) Hamster-A1 DDT1 MF-2

T2 sequence (P29274 whole entry): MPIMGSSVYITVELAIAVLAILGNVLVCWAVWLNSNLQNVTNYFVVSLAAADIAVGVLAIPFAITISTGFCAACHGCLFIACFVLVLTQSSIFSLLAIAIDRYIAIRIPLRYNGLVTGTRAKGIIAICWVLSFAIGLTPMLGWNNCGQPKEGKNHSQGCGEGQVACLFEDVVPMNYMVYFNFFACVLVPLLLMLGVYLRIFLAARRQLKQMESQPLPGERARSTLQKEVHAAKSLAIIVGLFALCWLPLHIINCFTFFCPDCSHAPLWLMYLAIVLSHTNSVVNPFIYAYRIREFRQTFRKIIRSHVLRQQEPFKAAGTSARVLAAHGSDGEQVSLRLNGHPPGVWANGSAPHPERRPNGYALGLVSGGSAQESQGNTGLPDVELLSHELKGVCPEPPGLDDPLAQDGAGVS

SMILES: Cn1c(-c2ccc(F)cc2)nc2c(NC3CCCC3)ncnc21 [cyclopentyl[8-(4-fluorophenyl)-9-methylpurin-6-yl]amine]
- Ki (Human-A2B (HEK-A2B); [1]): > 6.67 µM
- Ki (Human-A2A (HEK-A2A); [2]): > 5 µM
- Ki (Human-A1 (CHO-A1); [3]): 5 nM
- Ki (Hamster-A1 (DDT1 MF-2); [4]): 1 nM

SMILES: Cc1cccc(-c2nc3c(NC4CCCC4)ncnc3n2C)c1 [cyclopentyl[9-methyl-8-(3-methylphenyl)purin-6-yl]amine]
- Ki (Human-A2B (HEK-A2B); [1]): > 6.67 µM
- Ki (Human-A2A (HEK-A2A); [2]): > 5 µM
- Ki (Human-A1 (CHO-A1); [3]): 5 nM
- Ki (Hamster-A1 (DDT1 MF-2); [4]): 2 nM

SMILES: Cc1ccccc1-c1nc2c(NC3CCCC3)ncnc2n1C [cyclopentyl[9-methyl-8-(2-methylphenyl)purin-6-yl]amine]
- Ki (Human-A2B (HEK-A2B); [1]): > 6.67 µM
- Ki (Human-A2A (HEK-A2A); [2]): > 5 µM
- Ki (Human-A1 (CHO-A1); [3]): 42 nM
- Ki (Hamster-A1 (DDT1 MF-2); [4]): 20 nM

SMILES: Cn1c(-c2ccc(Cl)cc2)nc2c(NC3CCCC3)ncnc21 [[8-(4-chlorophenyl)-9-methylpurin-6-yl]cyclopentylamine]
- Ki (Human-A2B (HEK-A2B); [1]): > 6.67 µM
- Ki (Human-A2A (HEK-A2A); [2]): > 5 µM
- Ki (Human-A1 (CHO-A1); [3]): 9 nM
- Ki (Hamster-A1 (DDT1 MF-2); [4]): 10 nM

SMILES: COc1ccc(-c2nc3c(NC4CCCC4)ncnc3n2C)cc1 [cyclopentyl[8-(4-methoxyphenyl)-9-methylpurin-6-yl]amine]
- Ki (Human-A2B (HEK-A2B); [1]): > 6.67 µM
- Ki (Human-A2A (HEK-A2A); [2]): > 5 µM
- Ki (Human-A1 (CHO-A1); [3]): 32 nM
- Ki (Hamster-A1 (DDT1 MF-2); [4]): 22 nM

SMILES: CCn1c(-c2ccccc2)nc2c(NC3CCCCC3)ncnc21 [cyclohexyl(9-ethyl-8-phenylpurin-6-yl)amine]
- Ki (Human-A2B (HEK-A2B); [1]): > 6.67 µM
- Ki (Human-A2A (HEK-A2A); [2]): > 5 µM
- Ki (Human-A1 (CHO-A1); [3]): 11 nM
- Ki (Hamster-A1 (DDT1 MF-2); [4]): 4 nM

SMILES: Cc1ccc(-c2nc3c(NC4CCCC4)ncnc3n2C)cc1 [cyclopentyl[9-methyl-8-(4-methylphenyl)purin-6-yl]amine]
- Ki (Human-A2B (HEK-A2B); [1]): > 6.67 µM
- Ki (Human-A2A (HEK-A2A); [2]): > 5 µM
- Ki (Human-A1 (CHO-A1); [3]): 5 nM
- Ki (Hamster-A1 (DDT1 MF-2); [4]): 3 nM

SMILES: Cn1c(-c2ccc(O)cc2)nc2c(NC3CCCC3)ncnc21 [4-[6-(cyclopentylamino)-9-methylpurin-8-yl]phenol]
- Ki (Human-A2B (HEK-A2B)): > 6.67 µM
- Ki (Human-A2A (HEK-A2A)): > 5 µM
- Ki (Human-A1 (CHO-A1)): 9 nM
- Ki (Hamster-A1 (DDT1 MF-2)): 4 nM

SMILES: CCCn1c(-c2ccccc2)nc2c(NC3CCCCC3)ncnc21 [cyclohexyl(8-phenyl-9-propylpurin-6-yl)amine]
- Ki (Human-A2B (HEK-A2B); [1]): > 6.67 µM
- Ki (Human-A2A (HEK-A2A); [2]): > 5 µM
- Ki (Human-A1 (CHO-A1); [3]): 25 nM
- Ki (Hamster-A1 (DDT1 MF-2); [4]): 11 nM

SMILES: Cn1c(-c2cccnc2)nc2c(NC3CCCC3)ncnc21 [cyclopentyl(9-methyl-8-(3-pyridyl)purin-6-yl)amine]
- Ki (Human-A2B (HEK-A2B); [1]): > 6.67 µM
- Ki (Human-A2A (HEK-A2A); [2]): > 5 µM
- Ki (Human-A1 (CHO-A1); [3]): 184 nM
- Ki (Hamster-A1 (DDT1 MF-2); [4]): 84 nM

SMILES: Cn1c(-c2ccccc2)nc2c(NC3CCCCC3)ncnc21 [cyclohexyl(9-methyl-8-phenylpurin-6-yl)amine]
- Ki (Human-A2B (HEK-A2B); [1]): > 6.67 µM
- Ki (Human-A2A (HEK-A2A); [2]): > 5 µM
- Ki (Human-A1 (CHO-A1); [3]): 2 nM
- Ki (Hamster-A1 (DDT1 MF-2); [4]): 1 nM

SMILES: Cn1c(-c2cccc(Cl)c2)nc2c(NC3CCCC3)ncnc21 [[8-(3-chlorophenyl)-9-methylpurin-6-yl]cyclopentylamine]
- Ki (Human-A2B (HEK-A2B); [1]): > 6.67 µM
- Ki (Human-A2A (HEK-A2A); [2]): > 5 µM
- Ki (Human-A1 (CHO-A1); [3]): 5 nM
- Ki (Hamster-A1 (DDT1 MF-2); [4]): 3 nM
